Results from EPA's ToxRefDB 2.

Key:
[1] = tested on: rabbit; conditions: Prenatal developmental toxicity study, new zealand white, Injection, Intravenous, dose end: 19 GD
[2] = tested on: rat; conditions: Fertility (Segment I); sprague dawley; Injection; Intravenous; dose end: 20 GD; group: parental; systemic / in life observation / body weight / body weight gain + systemic / in life observation / food consumption / food consumption + …
[3] = tested on: rat; conditions: Prenatal developmental toxicity study, sprague dawley, Injection, Intravenous, dose end: 17 GD
[4] = group: developmental, developmental / developmental malformation / heart / enlarged aortic valve
[5] = group: maternal, reproductive / offspring survival early / litter size / litter size
[6] = group: developmental, developmental / developmental malformation / bone / incomplete ossification + developmental / developmental malformation / bone / knobby + …
[7] = group: developmental, developmental / developmental malformation / ureter / convoluted
[8] = group: maternal, systemic / in life observation / body weight / body weight gain
[9] = group: maternal, systemic / in life observation / body weight / body weight gain + systemic / in life observation / food consumption / food consumption

Structure (SMILES): CCOC(=O)c1ccc(C2CCC(NC[C@H](O)COc3ccc(O)c(NS(C)(=O)=O)c3)CC2)cc1.Cl (stereo partly drawn)
- LEL [1, 4]: 160 mg/kg/day
- LOAEL [1, 4]: > 160 mg/kg/day
- NEL [1, 4]: 80 mg/kg/day
- NOAEL [1, 4]: ≥ 160 mg/kg/day
- LOAEL [1, 5]: 80 mg/kg/day
- NOAEL [1, 5]: 40 mg/kg/day
- LEL ([1]; group: maternal, reproductive / offspring survival early / litter size / litter size + reproductive / reproductive performance / postimplantation loss / …): 80 mg/kg/day
- NEL ([1]; group: maternal, reproductive / reproductive performance / postimplantation loss / postimplantation loss + reproductive / reproductive performance / …): 40 mg/kg/day
- LEL [2]: 160 mg/kg/day
- LOAEL [2]: 160 mg/kg/day
- LOAEL [3, 6]: 160 mg/kg/day
- NOAEL [3, 6]: 40 mg/kg/day
- LEL [3, 7]: 10 mg/kg/day
- NEL [3, 7]: < 10 mg/kg/day
- LEL [3, 8]: 10 mg/kg/day
- NEL [3, 8]: < 10 mg/kg/day
- LOAEL [3, 9]: 160 mg/kg/day
- NOAEL [3, 9]: 40 mg/kg/day
